# Test results as given in patent US20260248744A1, “USE OF NON-TOXIC POLYAMINE ANALOGUES AND/OR INHIBITORS OF POLYAMINE BIOSYNTHESIS TO RE-BALANCE NATURAL POLYAMINE LEVELS IN SNYDER-ROBINSON SYNDROME AND RELATED DISORDERS” (The Johns Hopkins University, priority 2022, published 2026).
# Legend:
# SRS fibroblast lines = assay: Proliferation of SRS fibroblast lines cotreated with DFMO and Me2Spm; type: cell-based; conditions: cotreated with DFMO and Me2Spm for 96 h (FIG. 4C)
# Protocol: (FIG. 4B) DFMO cooperates with Me2Spm in improving SPD/SPM ratio, indicated by numbers above columns. […] In FIG. 4A and FIG. 4B, SRS patient-derived lymphoblastoid cells were pretreated with DFMO followed by 96-h cotreatment with DFMO and Me2Spm. SRS fibroblast lines in FIG. 4C were cotreated with DFMO and Me2Spm for 96 h;
# [1] = shown previously (Murray Stewart et al., 2020); cited from earlier work
# WT male C57Bl/6J mice = assay: Long-term in vivo exposure to low-dose (R,R)-1,12-Me2Spm in mice; conditions: WT male C57Bl/6J mice (FIG. 2)
# Text: Without wishing to be bound to any one particular theory, it is thought that inhibiting polyamine biosynthesis will enhance uptake of 1,12-Me2Spm and/or reduce the dose necessary for spermidine reduction.
# SRS cells = assay: Treatment of SRS cells with AdoDATO (polyamine levels); type: cell-based; conditions: SRS cells (FIG. 6)
# [2] = target: T1, spermidine synthase (SRM) (Homo sapiens, UniProt P19623); assay: Inhibition of spermidine synthase
# T1 sequence (P19623 1-302): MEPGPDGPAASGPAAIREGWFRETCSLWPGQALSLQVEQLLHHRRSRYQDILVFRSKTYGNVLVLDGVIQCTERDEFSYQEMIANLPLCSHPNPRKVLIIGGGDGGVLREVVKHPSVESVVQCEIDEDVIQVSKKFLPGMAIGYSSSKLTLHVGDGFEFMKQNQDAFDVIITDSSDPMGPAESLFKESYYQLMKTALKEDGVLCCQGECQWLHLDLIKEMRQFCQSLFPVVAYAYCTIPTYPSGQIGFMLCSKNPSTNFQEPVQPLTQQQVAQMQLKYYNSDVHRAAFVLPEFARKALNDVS
# [3] = system: SRS patient-derived cell lines; assay: Response of SRS patient-derived cell lines to DFMO (conversion of SPD to SPM); type: cell-based
# [4] = system: SRS patient-derived lymphoblastoid cells; assay: Polyamine levels in SRS patient-derived lymphoblastoid cells treated with DFMO and Me2Spm; type: cell-based; conditions: DFMO pretreatment followed by 96-h cotreatment (FIG. 4A)
# [5] = system: SRS cells with a complete loss-of-function mutation in SMS; assay: Response to DFMO of SRS cells with complete loss-of-function mutation in SMS; type: cell-based; conditions: response to DFMO (FIG. 5E)
# Text: (§1) FIG. 5A, FIG. 5B, FIG. 5C, FIG. 5D, and FIG. 5E show potential therapeutic targets and molecules in the response of SRS cells to DFMO.
# children = conditions: Phase 2 preventative trials in pediatric neuroblastoma; ODC1/Bachmann-Bupp trials; cited from earlier work
# SAMDC = SAMDC activity in SRS cells treated with DFMO; type: cell-based; conditions: FIG. 5C
# Text: as §1
molecule,measurement,setting,value
"C[C@@H](N)CCNCCCCNCC[C@@H](C)N [(R,R)-1,12-dimethylspermine]",rescue of DFMO-mediated growth inhibition,SRS fibroblast lines,rescues DFMO-mediated growth inhibition
same,metabolic stability,[1],metabolically stable
same,SPD/SPM ratio,WT male C57Bl/6J mice,improves the SPD/SPM ratio
same,toxicity of long-term in vivo exposure,WT male C57Bl/6J mice,nontoxic
"NCCCCC[S+](CCN)CC1OC(n2cnc3c(N)ncnc32)C(O)C1O (stereo not drawn) [AdoDATO, S-adenosyl-1,8-diamino-3-thio-octane]",SPD/SPM ratio,SRS cells,improves the SPD/SPM ratio
same,levels of putrescine,SRS cells,maintaining levels of putrescine
same,inhibition of spermidine synthase (SRM),[2],inhibits spermidine synthase (SRM)
N=C(N)c1cccc2c1CC/C2=N\N=C(N)N [CGP48664],conversion to SPM on cotreatment with DFMO,[3]; cotreatment of DFMO with SAMDC inhibitor (FIG. 5D),prevents the conversion to SPM
difluoromethylornithine [DFMO],SPD/SPM ratio,[3]; SRS patient-derived cell lines (FIG. 5B),correction of the SPD/SPM ratio
same,conversion of SPD to SPM,[3]; hypomorphic SRS cells (FIG. 5A),enhances conversion of SPD to SPM
same,levels of putrescine,SRS cells,depletes
same,uptake of Me2Spm,[4],increases uptake of Me2Spm
same,conversion of SPD to SPM,[5],do not convert SPD to SPM
same,safety in children,children,safe in children
same,SAMDC activity,SAMDC,induces SAMDC activity
